Measured values published in PubChem BioAssay (NCI).
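Where inhibition never reached the appropriate level, the endpoint shown equals the highest concentration tested. Otherwise, values were interpolated linearly from a five-concentration, 48-hour dose response in 96-well plates. GI50 = concentration required for 50% inhibition of growth. TGI denotes the concentration required for complete inhibition of growth.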

Legend:
Experiment in all cases: DTP human tumour cell line panel, 48 h
UACC-257 melanoma = test system: UACC-257 melanoma
HCT-116 colon = test system: HCT-116 colon
KM12 colon = test system: KM12 colon
SNB-19 CNS = test system: SNB-19 CNS
SNB-75 CNS = test system: SNB-75 CNS
786-0 renal = test system: 786-0 renal
HOP-62 NSCLC = test system: HOP-62 NSCLC
HOP-92 NSCLC = test system: HOP-92 NSCLC
NCI-H23 lung = test system: NCI-H23 lung
SN12C renal = test system: SN12C renal
SW-620 colon = test system: SW-620 colon
TK-10 renal = test system: TK-10 renal
A498 renal = test system: A498 renal
M14 melanoma = test system: M14 melanoma
ACHN renal = test system: ACHN renal
SK-MEL-5 melanoma = test system: SK-MEL-5 melanoma
NCI-H460 lung = test system: NCI-H460 lung
MCF7 breast = test system: MCF7 breast
K-562 leukemia = test system: K-562 leukemia
RPMI-8226 leukemia = test system: RPMI-8226 leukemia
MDA-MB-231 breast = test system: MDA-MB-231 breast
MDA-MB-435 = test system: MDA-MB-435
IGROV1 ovarian = test system: IGROV1 ovarian
A549 NSCLC = test system: A549 NSCLC
MALME-3M melanoma = test system: MALME-3M melanoma
UO-31 renal = test system: UO-31 renal
SK-OV-3 ovarian = test system: SK-OV-3 ovarian
UACC-62 melanoma = test system: UACC-62 melanoma
SF-268 CNS = test system: SF-268 CNS

COc1ccc(-c2cnc(NC(=O)CCCCCCNC(=O)C(O)(O)C(F)(F)F)s2)cc1 gave a GI50 (UACC-257 melanoma) of 1570 nM, a TGI (UACC-257 melanoma) of 24600 nM and a GI50 (HCT-116 colon) of 540 nM. The TGI (HCT-116 colon) was 4410 nM, the GI50 (KM12 colon) was 1080 nM and the TGI (KM12 colon) was 5480 nM. The GI50 (SNB-19 CNS) was 1280 nM, the TGI (SNB-19 CNS) was 9440 nM and the GI50 (SNB-75 CNS) was 1760 nM. It also gave a TGI (SNB-75 CNS) greater than 30800 nM, a GI50 (786-0 renal) of 1270 nM and a TGI (786-0 renal) of 15100 nM. The GI50 (HOP-62 NSCLC) was 1140 nM, the TGI (HOP-62 NSCLC) was greater than 30800 nM and the GI50 (HOP-92 NSCLC) was 561 nM. It also gave a TGI (HOP-92 NSCLC) of 2110 nM, a GI50 (NCI-H23 lung) of 1230 nM and a TGI (NCI-H23 lung) of 8080 nM. The GI50 (SN12C renal) was 1210 nM, the TGI (SN12C renal) was 10600 nM and the GI50 (SW-620 colon) was 623 nM. It also gave a TGI (SW-620 colon) of 2360 nM, a GI50 (TK-10 renal) of 481 nM and a TGI (TK-10 renal) greater than 30800 nM. For the same molecule, the GI50 (A498 renal) was 288 nM, the TGI (A498 renal) was 1530 nM and the GI50 (M14 melanoma) was 1450 nM. For the same molecule, the TGI (M14 melanoma) was greater than 30800 nM, the GI50 (ACHN renal) was 1010 nM and the TGI (ACHN renal) was 4190 nM. The GI50 (SK-MEL-5 melanoma) was 921 nM, the TGI (SK-MEL-5 melanoma) was 2860 nM and the GI50 (NCI-H460 lung) was 735 nM. The TGI (NCI-H460 lung) was 5790 nM, the GI50 (MCF7 breast) was 1310 nM and the TGI (MCF7 breast) was greater than 30800 nM. The GI50 (K-562 leukemia) was 709 nM, the TGI (K-562 leukemia) was greater than 30800 nM and the GI50 (RPMI-8226 leukemia) was 857 nM. The TGI (RPMI-8226 leukemia) was greater than 30800 nM, the GI50 (MDA-MB-231 breast) was 719 nM and the TGI (MDA-MB-231 breast) was 2500 nM. It also gave a GI50 (MDA-MB-435) of 1000 nM, a TGI (MDA-MB-435) of 10200 nM and a GI50 (IGROV1 ovarian) of 987 nM. The TGI (IGROV1 ovarian) was 5310 nM, the GI50 (A549 NSCLC) was 1380 nM and the TGI (A549 NSCLC) was 11500 nM. For the same molecule, the GI50 (MALME-3M melanoma) was 1020 nM, the TGI (MALME-3M melanoma) was 3360 nM and the GI50 (UO-31 renal) was 904 nM. For the same molecule, the TGI (UO-31 renal) was 3980 nM, the GI50 (SK-OV-3 ovarian) was 863 nM and the TGI (SK-OV-3 ovarian) was 2270 nM. For the same molecule, the GI50 (UACC-62 melanoma) was 662 nM, the TGI (UACC-62 melanoma) was 1880 nM and the GI50 (SF-268 CNS) was 1130 nM.
